Assay results as given in patent US9920010B2, “CXCR7 receptor modulators” (IDORSIA PHARMACEUTICALS LTD, priority 2013, dated 2018).

Each compound was assayed against T1, CXCR7 (Homo sapiens, UniProt P25106) (assay: PathHunter CHO-K1 CXCR7 b-arrestin recruitment assay (CXCR7 agonistic activity)). Details: PathHunter CHO-K1 CXCR7 b-arrestin cell line.
T1 construct: host or cells: CHO-K1 (PathHunter CHO-K1 CXCR7 b-arrestin cell line, stably transfected)
Type: cell-based
Method in brief: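 Stable CHO-K1 line with C-terminally ProLink-tagged CXCR7 and β-arrestin 2–EA fusion; β-arrestin recruitment restores β-gal activity, read by chemiluminescence after 1 h RT detection. Cells seeded 24 h, starved in OPTIMEM 3–4 h, exposed to compounds 90 min at 37 °C in HBSS/HEPES/BSA. Geometric-mean EC50 from repeated measurements.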

T1 sequence (P25106 whole entry): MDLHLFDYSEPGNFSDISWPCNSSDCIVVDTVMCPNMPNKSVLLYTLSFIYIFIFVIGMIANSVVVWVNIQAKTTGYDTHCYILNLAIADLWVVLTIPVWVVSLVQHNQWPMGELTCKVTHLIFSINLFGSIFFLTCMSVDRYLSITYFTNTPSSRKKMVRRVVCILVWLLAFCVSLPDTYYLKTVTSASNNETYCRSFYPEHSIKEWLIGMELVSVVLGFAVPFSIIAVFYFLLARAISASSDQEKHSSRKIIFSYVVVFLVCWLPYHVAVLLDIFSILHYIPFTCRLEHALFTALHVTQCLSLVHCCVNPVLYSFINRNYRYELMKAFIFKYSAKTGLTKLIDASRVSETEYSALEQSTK
T1 sequence (P32121 whole entry partner): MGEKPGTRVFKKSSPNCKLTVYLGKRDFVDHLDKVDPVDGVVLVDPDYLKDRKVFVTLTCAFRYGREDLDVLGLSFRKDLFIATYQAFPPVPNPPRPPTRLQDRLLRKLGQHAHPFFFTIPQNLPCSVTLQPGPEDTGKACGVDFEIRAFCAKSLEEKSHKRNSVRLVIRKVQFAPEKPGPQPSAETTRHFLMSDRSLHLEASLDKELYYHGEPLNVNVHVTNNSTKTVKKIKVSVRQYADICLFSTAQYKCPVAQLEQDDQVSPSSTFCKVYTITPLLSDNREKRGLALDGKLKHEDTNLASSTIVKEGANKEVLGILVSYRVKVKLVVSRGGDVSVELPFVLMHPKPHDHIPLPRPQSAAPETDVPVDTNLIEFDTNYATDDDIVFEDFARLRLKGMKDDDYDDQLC

First: CN(CCN(Cc1ccccc1Br)C(=O)CNc1cccc2c1CCN(CC1CC1)C2)C(=O)OC(C)(C)C [Example 235, (2-{(2-Bromo-benzyl)-[2-(2-cyclopropylmethyl-1,2,3,4-tetrahydro-isoquinolin-5-ylamino)-acetyl]-amino}-ethyl)-methyl-carbamic acid tert-butyl ester]
Second: CN(C)CCN(Cc1ccncc1Br)C(=O)CNc1cccc2c1CCN(CC1CC1)C2 [Example 239, N-(3-Bromo-pyridin-4-ylmethyl)-2-(2-cyclopropylmethyl-1,2,3,4-tetrahydro-isoquinolin-5-ylamino)-N-(2-dimethylamino-ethyl)-acetamide]
The EC50 of the first is 4.7-fold higher: 107 nM for the first, 23 nM for the second. The second is the more potent here.

Going from `CN(C)CCN(Cc1ncccc1Br)C(=O)CNc1cccc2c1CCN(CC1CC1)C2` [Example 236, N-(3-Bromo-pyridin-2-ylmethyl)-2-(2-cyclopropylmethyl-1,2,3,4-tetrahydro-isoquinolin-5-ylamino)-N-(2-dimethylamino-ethyl)-acetamide] to `CN(C)CCN(Cc1cccc(Br)c1)C(=O)CNc1cccc2c1CCN(CC1CC1)C2` [Example 237, N-(3-Bromo-benzyl)-2-(2-cyclopropylmethyl-1,2,3,4-tetrahydro-isoquinolin-5-ylamino)-N-(2-dimethylamino-ethyl)-acetamide], the EC50 rises from 3 nM to 5 nM (1.7-fold). The first is the more potent here.

Going from `CN(C)CCN(Cc1ccc(Br)cc1)C(=O)CNc1cccc2c1CCN(CC1CC1)C2` [Example 238, N-(4-Bromo-benzyl)-2-(2-cyclopropylmethyl-1,2,3,4-tetrahydro-isoquinolin-5-ylamino)-N-(2-dimethylamino-ethyl)-acetamide] to `CN(CCF)CCN(Cc1ccccc1C(F)(F)F)C(=O)CNc1cccc2c1CCN(CC1CC1)C2` [Example 244, 2-(2-Cyclopropylmethyl-1,2,3,4-tetrahydro-isoquinolin-5-ylamino)-N-{2-[(2-fluoro-ethyl)-methyl-amino]-ethyl}-N-(2-trifluoromethyl-benzyl)-acetamide], the EC50 falls from 43 nM to 3 nM (14-fold).

First: CC(C)(O)CN(Cc1ccccc1C(F)(F)F)C(=O)CNc1cccc2c1CCN(CC1CC1)C2 [Example 241, 2-(2-Cyclopropylmethyl-1,2,3,4-tetrahydro-isoquinolin-5-ylamino)-N-(2-hydroxy-2-methyl-propyl)-N-(2-trifluoromethyl-benzyl)-acetamide]
Second: C=CCN(C)CCN(Cc1ccccc1C(F)(F)F)C(=O)CNc1cccc2c1CCN(CC1CC1)C2 [Example 245, N-[2-(Allyl-methyl-amino)-ethyl]-2-(2-cyclopropylmethyl-1,2,3,4-tetrahydro-isoquinolin-5-ylamino)-N-(2-trifluoromethyl-benzyl)-acetamide]
The EC50 of the first is 2.7-fold higher: 8 nM for the first, 3 nM for the second.

First: O=C(CNc1cccc2c1CCN(CC1CC1)C2)N(Cc1ccccc1C(F)(F)F)CC1(O)CCCC1 [Example 243, 2-(2-Cyclopropylmethyl-1,2,3,4-tetrahydro-isoquinolin-5-ylamino)-N-(1-hydroxy-cyclopentylmethyl)-N-(2-trifluoromethyl-benzyl)-acetamide]
Second: O=C(CNc1cccc2c1CCN(CC1CC1)C2)N(Cc1cncs1)Cc1ccccc1C(F)(F)F [Example 247, 2-(2-Cyclopropylmethyl-1,2,3,4-tetrahydro-isoquinolin-5-ylamino)-N-thiazol-5-ylmethyl-N-(2-trifluoromethyl-benzyl)-acetamide]
The EC50 of the first is 3.6-fold lower: 8 nM for the first, 29 nM for the second.

Going from `C#CCN(C)CCN(Cc1ccccc1C(F)(F)F)C(=O)CNc1cccc2c1CCN(CC1CC1)C2` [Example 246, 2-(2-Cyclopropylmethyl-1,2,3,4-tetrahydro-isoquinolin-5-ylamino)-N-[2-(methyl-prop-2-ynyl-amino)-ethyl]-N-(2-trifluoromethyl-benzyl)-acetamide] to `O=C(CNc1cccc2c1CCN(CC1CC1)C2)N(CCN1CCC(F)(F)CC1)Cc1ccccc1Cl` [Example 248, N-(2-Chloro-benzyl)-2-(2-cyclopropylmethyl-1,2,3,4-tetrahydro-isoquinolin-5-ylamino)-N-[2-(4,4-difluoro-piperidin-1-yl)-ethyl]-acetamide], the EC50 rises from 14 nM to 32 nM (2.3-fold).
